Measured values taken from patent publication US4416884A, “Piperazinylbenzoheterocyclic compounds” (Otsuka Pharmaceutical Co., Ltd., priority 1978, dated 1983).
≈ marks a conversion by molar mass, not a printed value. Structures can show the parent of a compound that is named as a salt. Where two headings read alike, the source gives them in different places.

Legend:
Assay in all cases: antimicrobial activity, serial dilution method on agar plate
Type in all cases: cell-based
[1] = test system: Escherichia Coli NIHJ JC-2 (IFO 12734); conditions: Escherichia coli, read-out: Minimum Inhibitory Concentration
Protocol: (§1) The antimicrobial activity of the following test compounds on various test organisms listed below was determined by the serial dilution method on agar plate (Heart Infusion agar produced by Difco Co.) (see CHEMOTHERAPY 22, pp. 1126-1128 (1974)), and the minimum inhibitory concentrations (mcg/ml) obtained are shown in Table 1 below.
(§2) A sample of each test organism was prepared so that the population of the organism was 1×10^8 cells/ml (O.D. 660 mμ=0.07 to 0.16) and 1×10^6 cells/ml (which was obtained by diluting the above 1×10^8 cells/ml preparation).

Klebsiella pneumoniae = test system: Klebsiella pneumoniae
Protocol: as §1, §2

Proteus rettgeri NIH 96 = conditions: Providencia rettgeri
Protocol: as §1, §2

[2] = test system: Pseudomonas aeruginosa ATCC 10145
Protocol: as §1, §2

[3] = test system: Pseudomonas aeruginosa E-2
Protocol: as §1, §2

[4] = test system: Pseudomonas aeruginosa NCTC 10490
Protocol: as §1, §2

[5] = test system: Salmonella typhi 0-901 (NCTC 8393); conditions: Salmonella enterica
Protocol: as §1, §2

[6] = test system: Serattia marcescens IFO 12648
Protocol: as §1, §2

Shigella Sonnei EW 33 = conditions: inoculum 1 × 10^8 cells/ml, read-out: Minimum Inhibitory Concentration
Protocol: as §1, §2

[7] = test system: Staphylococcus aureus FDA 209 P
Protocol: as §1, §2

[8] = inoculum 1 × 10^8 cells/ml, read-out: Minimum Inhibitory Concentration
[9] = NIH96, inoculum 1 × 10^8 cells/ml, read-out: Minimum Inhibitory Concentration
[10] = ATCC10145, inoculum 1 × 10^8 cells/ml, read-out: Minimum Inhibitory Concentration
[11] = E2, inoculum 1 × 10^8 cells/ml, read-out: Minimum Inhibitory Concentration
[12] = NCTC10490, inoculum 1 × 10^8 cells/ml, read-out: Minimum Inhibitory Concentration
[13] = read-out: Minimum Inhibitory Concentration, inoculum 1 × 10^8 cells/ml
[14] = FDA209, inoculum 1 × 10^8 cells/ml, read-out: Minimum Inhibitory Concentration
[15] = NIH96, read-out: Minimum Inhibitory Concentration, inoculum 1 × 10^8 cells/ml
[16] = ATCC10145, read-out: Minimum Inhibitory Concentration, inoculum 1 × 10^8 cells/ml
[17] = E2, read-out: Minimum Inhibitory Concentration, inoculum 1 × 10^8 cells/ml
[18] = NCTC10490, read-out: Minimum Inhibitory Concentration, inoculum 1 × 10^8 cells/ml
[19] = FDA209, read-out: Minimum Inhibitory Concentration, inoculum 1 × 10^8 cells/ml

Structure (SMILES)	MIC ([1]; inoculum 1 × 10^8 cells/ml) [mg/L]	MIC (Klebsiella pneumoniae; [8]) [mg/L]	MIC (Proteus rettgeri NIH 96; [9]) [mg/L]	MIC [2, 10] [mg/L]	MIC [3, 11] [mg/L]	MIC [4, 12] [mg/L]	MIC [5, 13] [mg/L]	MIC [6, 8] [mg/L]	MIC (Shigella Sonnei EW 33) [mg/L]	MIC [7, 14] [mg/L]	MIC [1] [mg/L]	MIC (Klebsiella pneumoniae; [13]) [mg/L]	MIC (Proteus rettgeri NIH 96; [15]) [mg/L]	MIC [2, 16] [mg/L]	MIC [3, 17] [mg/L]	MIC [4, 18] [mg/L]	MIC [5, 8] [mg/L]	MIC [6, 13] [mg/L]	MIC [7, 19] [mg/L]
O=C(O)c1cn2c3c(c(N4CCN(C(=O)c5ccccc5)CC4)ccc3c1=O)CCC2 [Compound N, 8-(4-Benzoyl-1-piperazinyl)-6,7-dihydro-1-oxo-1H,5H--benzo[ij]quinolizine-2-carboxylic acid]	6.3 (≈ 15.1 µM)	6.3 (≈ 15.1 µM)	6.3 (≈ 15.1 µM)	50 (≈ 120 µM)	100 (≈ 240 µM)	25 (≈ 59.9 µM)	1.6 (≈ 3.83 µM)	12.5 (≈ 29.9 µM)	3.1 (≈ 7.43 µM)	3.1 (≈ 7.43 µM)	–	–	–	–	–	–	–	–	–
CN1CCN(c2ccc3c(=O)c(C(=O)O)cn4c3c2CCC4)CC1 [Compound L, 8-(4-Methyl-1-piperazinyl)-6,7-dihydro-1-oxo-1H,5H--benzo[ij]quinolizine-2-carboxylic acid]	1.6 (≈ 4.89 µM)	6.3 (≈ 19.2 µM)	3.1 (≈ 9.47 µM)	50 (≈ 153 µM)	50 (≈ 153 µM)	50 (≈ 153 µM)	3.1 (≈ 9.47 µM)	6.3 (≈ 19.2 µM)	3.1 (≈ 9.47 µM)	6.3 (≈ 19.2 µM)	–	–	–	–	–	–	–	–	–
O=C(O)c1cn2c3c(c(N4CCN(Cc5ccccc5)CC4)ccc3c1=O)CCC2 [Compound R, 8-(4-Benzyl-1-piperazinyl)-6,7-dihydro-1-oxo-1H,5H--benzo[ij]quinolizine-2-carboxylic acid]	1.6 (≈ 3.97 µM)	3.1 (≈ 7.68 µM)	1.6 (≈ 3.97 µM)	25 (≈ 62 µM)	25 (≈ 62 µM)	12.5 (≈ 31 µM)	1.6 (≈ 3.97 µM)	3.1 (≈ 7.68 µM)	1.6 (≈ 3.97 µM)	12.5 (≈ 31 µM)	–	–	–	–	–	–	–	–	–
O=C(O)c1cn2c3c(c(N4CCNCC4)ccc3c1=O)CC2 [Compound Q, 9-(1-Piperazinyl)-6-oxo-1,2-dihydro-6H--pyrrolo[3,2,1-ij]quinoline-5-carboxylic acid hydrochloride]	–	–	–	–	–	–	–	–	3.1	–	25	12.5	25	50	50	25	6.3	6.3	100
O=C(O)c1cn2c3c(c(N4CCNCC4)c(Cl)cc3c1=O)CCC2 [Compound P, 9-Chloro-8-(1-piperazinyl)-6,7-dihydro-1-oxo-1H,5H--benzo[ij]quinolizine-2-carboxylic acid hydrochloride]	–	–	–	–	–	–	–	–	1.6	–	1.6	0.8	0.4	6.3	6.3	6.3	0.8	1.6	6.3
Cc1ccc(S(=O)(=O)N2CCN(c3ccc4c(=O)c(C(=O)O)cn5c4c3CCC5)CC2)cc1 [Compound S, 8-(4-p-Toluenesulfonyl-1-piperazinyl)-6,7-dihydro-1-oxo-1H,5H--benzo[ij]quinolizine-2-carboxylic acid]	1.6 (≈ 3.42 µM)	3.1 (≈ 6.63 µM)	3.1 (≈ 6.63 µM)	25 (≈ 53.5 µM)	50 (≈ 107 µM)	12.5 (≈ 26.7 µM)	1.6 (≈ 3.42 µM)	6.3 (≈ 13.5 µM)	3.1 (≈ 6.63 µM)	6.3 (≈ 13.5 µM)	–	–	–	–	–	–	–	–	–
O=CN1CCN(c2ccc3c(=O)c(C(=O)O)cn4c3c2CCC4)CC1 [Compound M, 8-(4-Formyl-1-piperazinyl)-6,7-dihydro-1-oxo-1H,5H--benzo[ij]quinolizine-2-carboxylic acid]	1.6 (≈ 4.69 µM)	3.1 (≈ 9.08 µM)	1.6 (≈ 4.69 µM)	25 (≈ 73.2 µM)	25 (≈ 73.2 µM)	12.5 (≈ 36.6 µM)	0.8 (≈ 2.34 µM)	3.1 (≈ 9.08 µM)	1.6 (≈ 4.69 µM)	3.1 (≈ 9.08 µM)	–	–	–	–	–	–	–	–	–
